The source made the active and inactive calls.
Tests used:
[1] = target: Dual specificity tyrosine-phosphorylation-regulated kinase 1B (Homo sapiens, UniProt Q9Y463)
[2] = target: T1, Glycogen synthase kinase-3 (Sus scrofa, UniProt B2LUN4+I6LNT8); assay: Inhibition of porcine brain GSK-3alpha/beta at 10 uM using YRRAAVPPSPSLSRHSSPHQpSEDEEE as substrate incubated for 30 mins in presence of ATP by scintillation counting method; type: tissue-based
[3] = target: Casein kinase 2 (Homo sapiens, UniProt P67870+P68400+P19784+Q8NEV1); assay: Inhibition of human recombinant CK2 using RRRDDDSDDD peptide as substrate incubated for 30 mins in presence of ATP by scintillation counting method; type: protein assay
[4] = tested on: U2OS; assay: Induction of PI3K/mTor-dependent autophagy in human U2OS cells assessed as number of LC3 foci per cell at 10 uM measured after 4 hrs; type: cell-based; conditions: filed as activator
[5] = target: Dual specificity tyrosine-phosphorylation-regulated kinase 1A (Homo sapiens, UniProt Q13627); assay: Inhibition of GST-fused human recombinant DYRK1A expressed in Escherichia coli using GRSRSRSRSRSR peptide as substrate incubated for 30 mins in presence of ATP by scintillation counting method
[6] = target: Dual specificity protein kinase CLK4 (Mus musculus, UniProt O35493); assay: Inhibition of GST-fused mouse recombinant CLK4 expressed in Escherichia coli using GRSRSRSRSRSR peptide as substrate incubated for 30 mins in presence of ATP by scintillation counting method
Chain of Dual specificity protein kinase CLK4 (O35493 whole entry, the tested form may be a part): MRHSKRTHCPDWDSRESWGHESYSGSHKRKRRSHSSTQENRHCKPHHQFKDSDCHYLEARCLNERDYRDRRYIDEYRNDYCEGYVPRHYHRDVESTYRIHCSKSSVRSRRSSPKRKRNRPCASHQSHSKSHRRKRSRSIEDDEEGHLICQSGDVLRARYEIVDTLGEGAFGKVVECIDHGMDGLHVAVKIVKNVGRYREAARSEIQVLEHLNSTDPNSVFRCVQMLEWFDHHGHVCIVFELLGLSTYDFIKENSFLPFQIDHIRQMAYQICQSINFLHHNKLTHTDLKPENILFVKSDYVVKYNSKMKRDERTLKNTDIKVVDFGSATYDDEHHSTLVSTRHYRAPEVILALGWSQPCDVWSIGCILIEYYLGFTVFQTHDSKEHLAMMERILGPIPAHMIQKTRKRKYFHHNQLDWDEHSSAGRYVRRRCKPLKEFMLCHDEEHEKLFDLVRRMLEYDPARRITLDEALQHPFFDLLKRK

[7] = Neurotoxicity against mouse HT-22 cells assessed as cell survival treated for 24 hrs by MTS assay; type: toxicity, cell-based
[8] = tested on: HT-22; assay: Modulation of CLK1 pre-mRNA splicing in mouse HT-22 cells assessed as inclusion of CLK1 exon 4 by measuring change in threshold cycle at 10 uM measured after 4 hrs by real time PCR analysis; type: cell-based; conditions: filed as modulator
[9] = target: Dual specificity protein kinase CLK2 (Mus musculus, UniProt O35491); assay: Inhibition of mouse recombinant GST-fused CLK2 expressed in Escherichia coli using GRSRSRSRSRSR peptide as substrate incubated for 30 mins in presence of ATP by scintillation counting method
Chain of Dual specificity protein kinase CLK2 (O35491 whole entry, the tested form may be a part): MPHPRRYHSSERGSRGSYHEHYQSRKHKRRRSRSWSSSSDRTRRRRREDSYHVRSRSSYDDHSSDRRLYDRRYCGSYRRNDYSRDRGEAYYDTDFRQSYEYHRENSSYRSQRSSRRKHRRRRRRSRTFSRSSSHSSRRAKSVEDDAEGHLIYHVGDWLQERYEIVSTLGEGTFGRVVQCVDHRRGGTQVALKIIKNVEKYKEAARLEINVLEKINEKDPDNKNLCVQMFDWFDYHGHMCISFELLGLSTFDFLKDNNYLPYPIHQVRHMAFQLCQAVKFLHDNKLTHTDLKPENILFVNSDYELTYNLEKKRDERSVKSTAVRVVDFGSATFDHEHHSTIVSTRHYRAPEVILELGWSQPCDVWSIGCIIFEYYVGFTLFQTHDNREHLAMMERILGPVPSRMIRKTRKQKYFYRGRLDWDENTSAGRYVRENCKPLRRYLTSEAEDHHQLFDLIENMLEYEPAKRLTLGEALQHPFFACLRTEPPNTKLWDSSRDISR

[10] = target: T2, Dual specificity tyrosine-phosphorylation-regulated kinase 2 (Homo sapiens, UniProt Q92630); assay: Inhibition of GST-fused human recombinant DYRK2 expressed in Escherichia coli using GRSRSRSRSRSR peptide as substrate incubated for 30 mins in presence of ATP by scintillation counting method
T2 sequence (Q92630 whole entry): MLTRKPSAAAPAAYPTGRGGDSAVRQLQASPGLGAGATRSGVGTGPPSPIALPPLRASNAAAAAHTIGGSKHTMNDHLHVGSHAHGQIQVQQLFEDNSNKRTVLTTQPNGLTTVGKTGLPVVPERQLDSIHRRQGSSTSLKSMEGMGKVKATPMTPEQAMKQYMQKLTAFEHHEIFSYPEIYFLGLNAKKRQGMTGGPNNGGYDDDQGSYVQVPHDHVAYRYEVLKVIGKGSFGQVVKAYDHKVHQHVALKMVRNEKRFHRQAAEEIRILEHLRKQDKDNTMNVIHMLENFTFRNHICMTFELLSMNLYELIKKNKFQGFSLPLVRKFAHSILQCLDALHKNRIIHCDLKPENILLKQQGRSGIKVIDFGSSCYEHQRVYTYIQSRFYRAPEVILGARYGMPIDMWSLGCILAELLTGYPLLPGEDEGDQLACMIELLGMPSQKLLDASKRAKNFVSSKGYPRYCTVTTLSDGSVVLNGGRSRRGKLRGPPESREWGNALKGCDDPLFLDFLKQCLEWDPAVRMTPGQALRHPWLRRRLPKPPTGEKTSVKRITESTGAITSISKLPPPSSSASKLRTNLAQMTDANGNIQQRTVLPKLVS

[11] = target: Serine/threonine-protein kinase pim-1 (Homo sapiens, UniProt P11309); assay: Inhibition of human recombinant Pim1 expressed in Escherichia coli using histone H1 as substrate incubated for 30 mins in presence of ATP by scintillation counting method
Chain of Serine/threonine-protein kinase pim-1 (P11309 whole entry): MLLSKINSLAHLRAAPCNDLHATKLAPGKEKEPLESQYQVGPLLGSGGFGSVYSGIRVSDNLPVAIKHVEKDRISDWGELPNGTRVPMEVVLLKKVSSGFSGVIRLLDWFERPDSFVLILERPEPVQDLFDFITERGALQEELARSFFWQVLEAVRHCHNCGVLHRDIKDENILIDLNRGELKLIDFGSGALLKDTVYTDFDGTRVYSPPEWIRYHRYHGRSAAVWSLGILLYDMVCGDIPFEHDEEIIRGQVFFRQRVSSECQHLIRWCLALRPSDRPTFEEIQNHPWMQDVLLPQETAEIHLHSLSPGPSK

[12] = target: T3, Cannabinoid receptor 1 (Homo sapiens, UniProt P21554); assay: Antagonist activity at CP-55940-activated CB1 receptor (unknown origin) at 10 uM by beta-arrestin assay relative to control; type: functional; design: scale not given: the % may be the effect or the level left
T3 sequence (P21554 whole entry, the tested form may be a part): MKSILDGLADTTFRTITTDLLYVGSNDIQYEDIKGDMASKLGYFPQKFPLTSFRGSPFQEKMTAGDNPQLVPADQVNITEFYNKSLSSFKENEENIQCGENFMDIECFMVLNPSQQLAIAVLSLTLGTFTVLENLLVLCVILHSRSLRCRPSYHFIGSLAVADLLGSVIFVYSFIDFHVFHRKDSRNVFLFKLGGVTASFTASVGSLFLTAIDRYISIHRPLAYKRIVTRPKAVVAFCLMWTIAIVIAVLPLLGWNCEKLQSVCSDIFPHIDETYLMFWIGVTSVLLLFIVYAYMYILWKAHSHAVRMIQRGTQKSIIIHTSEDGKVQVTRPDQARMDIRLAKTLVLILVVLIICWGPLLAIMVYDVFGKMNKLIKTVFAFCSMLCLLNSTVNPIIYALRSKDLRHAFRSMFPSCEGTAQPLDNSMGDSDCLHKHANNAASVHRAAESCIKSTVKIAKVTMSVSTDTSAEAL

[13] = target: Dual specificity protein kinase CLK1 (Mus musculus, UniProt P22518); assay: Inhibition of GST-fused mouse recombinant CLK1 expressed in Escherichia coli using GRSRSRSRSRSR peptide as substrate incubated for 30 mins in presence of ATP by scintillation counting method
Chain of Dual specificity protein kinase CLK1 (P22518 whole entry, the tested form may be a part): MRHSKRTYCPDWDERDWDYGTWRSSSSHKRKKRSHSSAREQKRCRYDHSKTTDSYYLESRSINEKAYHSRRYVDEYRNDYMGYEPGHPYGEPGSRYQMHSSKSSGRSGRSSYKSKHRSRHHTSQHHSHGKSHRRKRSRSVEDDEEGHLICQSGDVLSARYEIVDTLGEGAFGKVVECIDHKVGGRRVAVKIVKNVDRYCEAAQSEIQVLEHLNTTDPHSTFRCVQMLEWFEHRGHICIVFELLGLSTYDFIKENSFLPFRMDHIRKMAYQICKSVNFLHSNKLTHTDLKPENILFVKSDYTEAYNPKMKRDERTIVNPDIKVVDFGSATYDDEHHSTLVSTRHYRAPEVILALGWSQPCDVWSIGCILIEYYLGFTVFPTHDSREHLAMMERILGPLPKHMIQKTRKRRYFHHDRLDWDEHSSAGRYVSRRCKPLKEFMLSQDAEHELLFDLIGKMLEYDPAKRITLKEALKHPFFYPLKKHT

[14] = target: Dual specificity protein kinase CLK3 (Mus musculus, UniProt O35492); assay: Inhibition of GST-fused mouse recombinant CLK3 expressed in Escherichia coli using GRSRSRSRSRSR peptide as substrate incubated for 30 mins in presence of ATP by scintillation counting method
Chain of Dual specificity protein kinase CLK3 (O35492 whole entry, the tested form may be a part): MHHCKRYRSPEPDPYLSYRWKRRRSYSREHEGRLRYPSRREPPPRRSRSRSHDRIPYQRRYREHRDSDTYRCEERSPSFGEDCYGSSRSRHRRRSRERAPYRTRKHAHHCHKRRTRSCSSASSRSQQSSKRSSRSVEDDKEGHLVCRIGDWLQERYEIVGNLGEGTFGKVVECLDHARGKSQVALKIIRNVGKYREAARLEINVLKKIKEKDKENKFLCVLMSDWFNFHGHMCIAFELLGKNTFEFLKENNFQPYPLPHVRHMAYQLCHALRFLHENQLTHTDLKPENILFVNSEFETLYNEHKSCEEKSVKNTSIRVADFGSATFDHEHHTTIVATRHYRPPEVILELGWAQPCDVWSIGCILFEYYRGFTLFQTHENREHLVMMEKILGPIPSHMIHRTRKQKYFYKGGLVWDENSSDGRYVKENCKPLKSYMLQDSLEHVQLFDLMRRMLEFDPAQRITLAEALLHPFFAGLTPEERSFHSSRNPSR

[15] = tested on: HT-22; assay: Induction of PI3K/mTor-dependent autophagy in mouse HT-22 cells assessed as number of LC3 foci per cell at 10 uM incubated for 24 hrs using Lamp-1 staining based immunofluorescence microscopy; conditions: filed as activator
[16] = tested on: Mus musculus; assay: Reduction in phosphorylated Tau Thr212 residue in Tg(Dyrk1a) mutant C57BL/6J mouse brain dosed at 20 mg/kg/day, ip for 19 days by western blot analysis; type: functional, organism-based; conditions: time 19.0 day
[17] = Reduction in phosphorylated Tau Thr212 residue in wild-type C57BL/6J mouse brain dosed at 20 mg/kg/day, ip for 19 days by western blot analysis; type: toxicity, organism-based; conditions: in vivo, 456 h, time 19 day
[18] = tested on: HT-22; assay: Neuroprotective activity against glutamate-induced cell death in mouse HT-22 cells treated for 24 hrs by MTS assay; type: functional, cell-based; conditions: HT-22, 24 h
[19] = target: T1, Glycogen synthase kinase-3; assay: Inhibition of porcine brain GSK-3alpha/beta using YRRAAVPPSPSLSRHSSPHQpSEDEEE as substrate incubated for 30 mins in presence of ATP by scintillation counting method; type: tissue-based
[20] = tested on: HT-22; assay: Induction of PI3K/mTor-dependent autophagy in mouse HT-22 cells assessed as number of LC3 foci per cell at 10 uM incubated for 24 hrs using Anti-LC3 staining based immunofluorescence microscopy; conditions: filed as activator
[21] = target: T3, Cannabinoid receptor 1; assay: Displacement of [3H]-CP55940 from CB1 receptor (unknown origin) expressed in HEK293 cell membrane assessed as dissociation constant at 10 uM by liquid scintillation counting method; type: cell membranes; conditions: filed as modulator
[22] = tested on: HT-22; assay: Modulation of CLK1 pre-mRNA splicing in mouse HT-22 cells assessed as maximal effect of CLK1 exon 4 inclusion measured after 3 hrs by qPCR analysis; type: functional, cell-based
[23] = Neurotoxicity against mouse HT-22 cells assessed as cell survival at 20 uM treated for 24 hrs by MTS assay; type: toxicity, cell-based; conditions: ht-22, 24 h
[24] = target: T3, Cannabinoid receptor 1; assay: […] allosteric modulation of CB1 receptor (unknown origin) expressed in HEK293 cell membrane assessed as inhibition of CP-55940-induced [35S]-GTPgammaS binding at 10 uM in presence of GDP by liquid scintillation counting method; type: functional, cell membranes; conditions: DDE = dose-dependent effect
[25] = tested on: HT-22; conditions: Mus musculus, filed as modulator, dose 10.0 µM, time 6.0 hrs
[26] = tested on: HT-22; assay: Neuroprotective activity against glutamate-induced cell death in mouse HT-22 cells at 10 uM incubated for 24 hrs by phase contrast microscopy; type: functional, cell-based
[27] = target: T3, Cannabinoid receptor 1; assay: Antagonist activity at CP-55940-activated CB1 receptor (unknown origin) by beta-arrestin assay; type: functional
[28] = Neurotoxicity against mouse HT-22 cells assessed as cell survival at 10 uM treated for 24 hrs by MTS assay; type: toxicity, cell-based; conditions: ht-22, 24 h
[29] = target: T4, Dual specificity tyrosine-phosphorylation-regulated kinase 3 (Homo sapiens, UniProt O43781); assay: Inhibition of GST-fused human recombinant DYRK3 expressed in Escherichia coli using GRSRSRSRSRSR peptide as substrate incubated for 30 mins in presence of ATP by scintillation counting method
T4 sequence (O43781 whole entry): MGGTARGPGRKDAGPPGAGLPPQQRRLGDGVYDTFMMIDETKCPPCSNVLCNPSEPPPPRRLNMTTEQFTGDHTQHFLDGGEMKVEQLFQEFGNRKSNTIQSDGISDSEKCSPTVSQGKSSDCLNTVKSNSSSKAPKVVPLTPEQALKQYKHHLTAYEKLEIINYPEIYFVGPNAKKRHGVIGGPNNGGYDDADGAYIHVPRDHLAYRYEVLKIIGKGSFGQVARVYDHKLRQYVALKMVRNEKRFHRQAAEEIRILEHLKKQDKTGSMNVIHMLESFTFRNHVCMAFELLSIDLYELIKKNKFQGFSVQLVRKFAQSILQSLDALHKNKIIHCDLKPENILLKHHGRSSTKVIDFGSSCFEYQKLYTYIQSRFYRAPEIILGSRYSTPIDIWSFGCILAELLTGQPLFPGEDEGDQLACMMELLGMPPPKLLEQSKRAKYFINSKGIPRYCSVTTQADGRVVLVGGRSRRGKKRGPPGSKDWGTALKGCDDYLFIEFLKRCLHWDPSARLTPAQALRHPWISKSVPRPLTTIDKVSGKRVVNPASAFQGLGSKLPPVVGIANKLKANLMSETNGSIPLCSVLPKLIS

Chain of Dual specificity tyrosine-phosphorylation-regulated kinase 1B (Q9Y463 whole entry): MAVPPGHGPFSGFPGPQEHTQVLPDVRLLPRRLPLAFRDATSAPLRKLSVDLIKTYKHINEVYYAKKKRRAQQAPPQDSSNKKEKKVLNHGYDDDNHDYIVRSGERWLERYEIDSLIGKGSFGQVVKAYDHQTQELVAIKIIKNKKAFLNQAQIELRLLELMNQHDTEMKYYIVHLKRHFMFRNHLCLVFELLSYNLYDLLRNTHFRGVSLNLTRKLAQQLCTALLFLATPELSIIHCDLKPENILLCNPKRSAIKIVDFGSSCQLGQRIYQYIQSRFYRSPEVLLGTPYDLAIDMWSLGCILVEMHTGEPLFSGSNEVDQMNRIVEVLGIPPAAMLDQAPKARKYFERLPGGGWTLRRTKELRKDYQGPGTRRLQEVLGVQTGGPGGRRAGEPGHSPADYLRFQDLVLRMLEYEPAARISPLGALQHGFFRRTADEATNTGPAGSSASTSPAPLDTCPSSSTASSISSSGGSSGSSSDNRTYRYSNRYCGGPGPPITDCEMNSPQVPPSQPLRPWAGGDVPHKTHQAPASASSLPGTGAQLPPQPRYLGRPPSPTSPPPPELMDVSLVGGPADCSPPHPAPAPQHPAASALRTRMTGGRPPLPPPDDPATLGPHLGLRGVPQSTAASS

Compound	IC50 [1] [µM]	IC50 [3] [µM]	Activity [4]	IC50 [5] [µM]	IC50 [6] [µM]	deltaCT [8]	IC50 [9] [µM]	IC50 [10] [µM]	IC50 [11] [µM]	IC50 [13] [µM]	EC50 [18] [µM]	IC50 [19] [µM]	Activity ([12]; filed as antagonist) [%]	other results
O=C1N=C(Nc2ccccc2)S/C1=C\c1ccc2c(c1)OCO2	0.61	2.5	5.9	10	1.2	-0.09	> 10	> 10	> 10	0.8	–	–	–	IC50 [2]: 2.5 µM; EC50 at 24 h [7]: > 20 µM; Activity [12]: -5.9%; IC50 [14]: 0.43 µM
O=C1NC(Nc2ccccc2)=N/C1=C\c1ccc2c(c1)OCO2	–	0.51	11.6	–	–	8.18	–	–	–	–	6.02	0.6	96.8	Activity ([4]; tested as the 2H-labelled form): 7.3; Activity [15]: Active; Activity [16]: Active; Activity [17]: Non-Toxic; IC50 at 24 h [7]: > 20 µM; deltaCT ([8]; tested as the 2H-labelled form): 7.71; Activity [20]: Active; Kb [21]: 2.2 µM; Activity ([12]; filed as antagonist, tested as the 2H-labelled form): 92.7%; Activity [22]: Active; Activity [23]: Non-Toxic; Activity [24]: Dde; deltaCT [25]: 8.18; Activity [26]: Active
COc1cc(/C=C2\N=C(Nc3ccc(N4CCCCC4)cc3)NC2=O)ccc1O	0.41	–	10.9	0.28	1.2	–	> 10	0.41	6.3	0.75	1.35	> 10	84.1	IC50 [27]: 0.297 µM; Activity [28]: Non-Toxic; IC50 [29]: 0.3 µM

Source: ChEMBL document CHEMBL5126517, “Structure-Activity Relationship in the Leucettine Family of Kinase Inhibitors” (J Med Chem, 2022)
